Test results as given in patent publication US20200278355A1, “CONJUGATED PROTEINS AND USES THEREOF” (THE SCRIPPS RESEARCH INSTITUTE, priority 2017, published 2020).

How the values were obtained:
[1] = test system: protein targets of BPK-29 in NSCLC cells (H460); assay: ABPP-SILAC competition of BPK-29yne labeling in H460 cells, proteome-wide; format: cell-based, human; conditions: beyond targets mapped by isoTOP-ABPP
Protocol: (§1) Isotopically labeled H460 cell lines were generated as described above. Light and heavy cells were treated with compounds (20 μM) or DMSO, respectively, for 3 h, followed by labeling with the BPK-29yne (5 μM) for 30 min. Cells were washed once ice-cold PBS and lysed in 1% Triton 100-X dissolved in PBS with protease inhibitors (Sigma) by sonication. Lysate was adjusted to 1.5 mg ml^−1 in 500 μL. Samples were conjugated by CuAAC to Biotin-PEG4-azide (5 μL of 10 mM stocks in DMSO, final concentration=100 μM). CuAAC “click” mix contained TCEP, TBTA ligand and CuSO4 as detailed for isoTOP-ABPP sample preparation. Samples were further processed as detailed in: isoTOP-ABPP streptavidin enrichment and isoTOP-ABPP trypsin TEV digestion with the following exception: after overnight incubation at 37° C. with trypsin, tryptic digests were separated from the beads with Micro Bio-Spin columns (Bio-Rad) by centrifugation (1,000×g, 1 min). Beads were rinsed once with water (200 μL) and combined with tryptic digests. […]
(§2) The MS2 spectra data were extracted and searched using RAW Convertor and ProLuCID algorithm as described in isoTOP-ABPP peptide and protein quantification. […] Ratios of heavy/light (DMSO/test compound) peaks were calculated using in-house CIMAGE software. […] The mean R values and standard deviation for multiple biological experiments were calculated from the average ratios from each replicate. […]

TXNRD1 = molecular target: T1, TXNRD1 (Homo sapiens, UniProt Q16881); assay: ABPP-SILAC BPK-29yne competition in H460 cells: TXNRD1; format: cell-based; conditions: 20 μM
T1 construct: endogenous in cells; host or cells: H460
Protocol: as §1, §2

T1 sequence (Q16881 whole entry): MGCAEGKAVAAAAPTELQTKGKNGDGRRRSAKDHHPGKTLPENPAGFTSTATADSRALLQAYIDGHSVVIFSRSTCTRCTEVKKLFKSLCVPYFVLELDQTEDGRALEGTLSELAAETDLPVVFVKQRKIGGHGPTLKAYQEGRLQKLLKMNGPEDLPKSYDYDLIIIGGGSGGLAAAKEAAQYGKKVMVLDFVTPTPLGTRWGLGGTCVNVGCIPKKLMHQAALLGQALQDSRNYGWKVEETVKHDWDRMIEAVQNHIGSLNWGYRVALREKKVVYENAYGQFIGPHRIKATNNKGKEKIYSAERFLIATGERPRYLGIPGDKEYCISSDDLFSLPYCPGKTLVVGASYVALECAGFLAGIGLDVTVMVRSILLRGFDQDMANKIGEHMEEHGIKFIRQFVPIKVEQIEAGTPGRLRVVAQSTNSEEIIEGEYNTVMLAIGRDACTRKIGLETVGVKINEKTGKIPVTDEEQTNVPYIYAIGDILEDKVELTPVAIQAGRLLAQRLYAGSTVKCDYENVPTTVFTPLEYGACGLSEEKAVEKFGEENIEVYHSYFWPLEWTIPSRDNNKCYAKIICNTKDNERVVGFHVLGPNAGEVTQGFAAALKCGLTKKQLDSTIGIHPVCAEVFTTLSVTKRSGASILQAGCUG

Question: Which results are given for `O=C(c1ccc(N2CCOCC2)cc1)N1CCCC(N(Cc2ccccc2)C(=O)CCl)CC1` (centres unmarked) [BPK-29, N-benzyl-2-chloro-N-(1-(4-morpholinobenzoyl)azepan-4-yl)acetamide]?
Answer: further proteins engaged, found with the BPK-29yne probe [1]: seven; BPK-29-competed BPK-29yne analysis (TXNRD1): Yes (Competed defined as showing R value ≥ 2.5 at 20 μM of test compound)
